inhibition, IC50 and T1/2 data for one compound are collected here from ChEMBL document CHEMBL5052835, “Slc26a3 inhibitors and use thereof” (2021).

Experiment [1] has as its target T1, Chloride anion exchanger (Mus musculus) (UniProt Q9WVC8).
T1 sequence (whole entry): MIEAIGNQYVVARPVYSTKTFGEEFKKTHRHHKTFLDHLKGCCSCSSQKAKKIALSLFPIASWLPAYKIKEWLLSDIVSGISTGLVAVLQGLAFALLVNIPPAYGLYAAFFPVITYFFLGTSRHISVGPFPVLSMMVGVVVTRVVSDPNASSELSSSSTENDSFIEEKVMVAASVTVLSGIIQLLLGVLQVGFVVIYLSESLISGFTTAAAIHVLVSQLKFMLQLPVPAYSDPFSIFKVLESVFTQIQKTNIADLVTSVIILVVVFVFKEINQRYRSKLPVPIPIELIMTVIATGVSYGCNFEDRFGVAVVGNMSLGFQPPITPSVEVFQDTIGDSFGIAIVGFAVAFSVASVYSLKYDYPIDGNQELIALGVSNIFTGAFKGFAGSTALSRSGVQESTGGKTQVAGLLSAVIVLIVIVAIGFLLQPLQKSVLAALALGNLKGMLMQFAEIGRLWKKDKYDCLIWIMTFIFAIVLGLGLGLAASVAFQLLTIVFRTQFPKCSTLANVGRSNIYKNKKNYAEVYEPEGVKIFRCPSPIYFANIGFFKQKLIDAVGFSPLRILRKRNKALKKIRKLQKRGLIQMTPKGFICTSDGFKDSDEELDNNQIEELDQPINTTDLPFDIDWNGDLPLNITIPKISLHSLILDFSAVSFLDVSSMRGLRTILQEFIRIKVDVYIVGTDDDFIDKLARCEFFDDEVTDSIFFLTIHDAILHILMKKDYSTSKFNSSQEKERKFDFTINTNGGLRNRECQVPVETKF
Kind of experiment: Inhibition of mouse Slc26a3 transfected in rat FRT cells at 10 uM preincubated with forskolin, 8-Br-cGMP and PMA and measured by fluorescence assay relative to control. The format is cell-based.

Experiment [2] can be described thus: Inhibition of Slc26a3-mediated HCO3- influx/Cl efflux in rat FRT cells measured by fluorescence assay. Type of experiment: cell-based.
For the next experiment, the system named is FRT. As to the kind of experiment: Inhibition of Slc26a3-mediated Cl-/ I- exchange in rat FRT cells assessed as half-life measured by fluorescence assay. The format is cell-based.
The species named for experiment [3] is Mus musculus. Kind of experiment: Inhibition of mouse Slc26a9-mediated Cl-/ I- exchange at 10 uM measured by cell-based fluorescence assay.
For experiment [4], the species on record is Mus musculus. Kind of experiment: Inhibition of mouse CFTR at 10 uM measured by cell-based fluorescence assay.
The target in experiment [5] is T2, Anoctamin-1 (Mus musculus) (UniProt Q8BHY3).
T2 sequence (whole entry): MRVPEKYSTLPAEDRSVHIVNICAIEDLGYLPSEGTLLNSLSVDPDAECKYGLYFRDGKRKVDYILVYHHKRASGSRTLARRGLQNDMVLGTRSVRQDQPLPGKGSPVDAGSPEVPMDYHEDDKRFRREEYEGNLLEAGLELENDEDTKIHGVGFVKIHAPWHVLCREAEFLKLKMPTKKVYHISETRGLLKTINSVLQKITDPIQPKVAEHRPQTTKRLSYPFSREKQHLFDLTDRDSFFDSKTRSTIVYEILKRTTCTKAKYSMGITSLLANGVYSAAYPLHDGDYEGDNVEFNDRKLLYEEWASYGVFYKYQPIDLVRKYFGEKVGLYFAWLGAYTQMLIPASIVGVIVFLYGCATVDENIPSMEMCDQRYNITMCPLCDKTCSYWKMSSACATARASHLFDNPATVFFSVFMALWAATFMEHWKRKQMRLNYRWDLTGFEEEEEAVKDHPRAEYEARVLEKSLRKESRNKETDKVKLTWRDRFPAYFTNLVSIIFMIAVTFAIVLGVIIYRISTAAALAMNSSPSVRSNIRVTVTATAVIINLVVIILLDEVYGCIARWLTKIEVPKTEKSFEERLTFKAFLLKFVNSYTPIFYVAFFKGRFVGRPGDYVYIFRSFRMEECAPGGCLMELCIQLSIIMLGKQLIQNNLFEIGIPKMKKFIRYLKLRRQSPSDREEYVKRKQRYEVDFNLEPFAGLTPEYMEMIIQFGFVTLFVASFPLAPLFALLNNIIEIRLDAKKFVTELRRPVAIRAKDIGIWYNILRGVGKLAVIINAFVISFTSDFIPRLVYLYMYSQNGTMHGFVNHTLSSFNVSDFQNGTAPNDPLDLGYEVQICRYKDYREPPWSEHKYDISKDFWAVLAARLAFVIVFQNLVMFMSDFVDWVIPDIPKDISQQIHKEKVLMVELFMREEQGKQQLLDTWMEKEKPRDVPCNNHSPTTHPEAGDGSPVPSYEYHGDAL
As to the kind of experiment: Inhibition of mouse TMEM16A at 10 uM measured by cell-based fluorescence assay.

The test system of the next experiment is Colon. Kind of experiment: Inhibition of fluid absorption in distal colonic loop isolated from female CD-1 mouse at 10 uM assessed as effect on reduction in loop weight/length ratio. The format is functional, tissue-based.
Experiment [6] relates to Jejunum. As to the kind of experiment: Inhibition of fluid absorption in mid-jejunal loops isolated from female CD-1 mouse at 10 uM assessed as effect on reduction in loop weight/length ratio. Type of experiment: functional, tissue-based.
Experiment [7] relates to Jejunum. As to the kind of experiment: Inhibition of fluid absorption in mid-jejunal loops isolated from female CD-1 mouse at 10 uM assessed as effect on reduction in loop weight/length ratio in presence of 10 microM tenapanor. Type of experiment: functional, tissue-based.
In experiment [8] the test system is Mus musculus. As to the kind of experiment: In vivo inhibition of slc26a3 in loperamide-induced constipation model of female CD-1 mouse at 5 mg/kg, po assessed as reduction in stool weight. Type of experiment: functional, organism-based.
Experiment [9] relates to Mus musculus. As to the kind of experiment: In vivo inhibition of slc26a3 in loperamide-induced constipation model of female CD-1 mouse at 5 mg/kg, po assessed as reduction in pellet number. Type of experiment: functional, organism-based.
The subject of experiment [10] is Mus musculus. Kind of experiment: In vivo inhibition of slc26a3 in loperamide-induced constipation model of female CD-1 mouse at 5 mg/kg, po assessed as reduction in stool water content. The format is functional, organism-based.
Experiment [11] deals with Mus musculus. Kind of experiment: In vivo inhibition of slc26a3 in loperamide-induced constipation model of female CD-1 mouse at 5 mg/kg, po co-administered with tenapanor assessed as reduction in stool weight. Type of experiment: functional, organism-based.
The test system of experiment [12] is Mus musculus. As to the kind of experiment: In vivo inhibition of slc26a3 in loperamide-induced constipation model of female CD-1 mouse at 5 mg/kg, po co-administered with tenapanor assessed as reduction in pellet number. Type of experiment: functional, organism-based.
For experiment [13], the system named is Mus musculus. Kind of experiment: In vivo inhibition of slc26a3 in loperamide-induced constipation model of female CD-1 mouse at 5 mg/kg, po co-administered with tenapanor assessed as reduction in stool water content. The format is functional, organism-based.
Experiment [14] concerns Mus musculus. As to the kind of experiment: In vivo inhibition of slc26a3 in loperamide-induced constipation model of cystic fibrosis mouse at 5 mg/kg, po assessed as reduction in stool water content. The format is functional, organism-based.
Experiment [15] deals with Mus musculus. As to the kind of experiment: Inhibition of oxalate absorption in high oxalate and low calcium diet-induced oxalate nephropathy model of mouse at 5 mg/kg, po assessed as reduction in crystal deposition in kidney. Type of experiment: functional, organism-based.
Experiment [16] deals with HBE. Kind of experiment: Inhibition of ENaC in human HBE cells at 10 uM pretreated with amiloride assessed as effect on short-circuit current responses. The format is cell-based.
Experiment [17] deals with HBE. As to the kind of experiment: Inhibition of CFTR in human HBE cells at 10 uM pretreated with forskolin assessed as effect on short-circuit current responses. The format is cell-based.
Experiment [18] has as its system HBE. As to the kind of experiment: Inhibition of CaCC in human HBE cells at 10 uM pretreated with ATP assessed as effect on short-circuit current responses. Type of experiment: cell-based.

pIC50: −log10 of the molar value. The source made the active and inactive calls. No cut-off for these calls is given here.

In the case of `Cc1c(CC(=O)O)c(=O)oc2c(C)c(OCc3cccc(Br)c3)ccc12`, the inhibition in experiment [1] is more than 50%. Moreover, the pIC50 in experiment [2] is 7.00. The T1/2 in the experiment with FRT came to 30 s. For the same compound, the inhibition result (in the experiment filed under Mus musculus [3]; in the experiment filed under Mus musculus [4]; in experiment [5]; with HBE [16]; in the experiment with HBE [17]; with HBE [18]) was “inactive” throughout. The inhibition entry with Colon, in the experiment on Jejunum [6], in the experiment with Jejunum [7], with Mus musculus [8], in the experiment with Mus musculus [9] and in the experiment on Mus musculus [10] was “Active” in each case. In addition, the inhibition result in the experiment with Mus musculus [11], in the experiment with Mus musculus [12], in the experiment with Mus musculus [13], in the experiment on Mus musculus [14] and in the experiment on Mus musculus [15] was “Active” each time.

What is called inhibition is the percentage by which the read-out fell short of the control. The pIC50 is the IC50 on a negative log10 scale, so that one unit is a factor of ten.
